Patent US20220031680A1, “Donecopride As Neuroprotective Agent In the Treatment of Neurodegenerative Diseases” (priority 2018, published 2022)

Columns and labels:
Tau (AT100) = assay: Phosphorylation of Tau (AT100) in MAP-2 hippocampal neurons injured with Aβ1-42; type: cell-based, rat; conditions: Aβ1-42 injured hippocampal neurons; for effect on Tau hyperphosphorylation: Example 4
Procedure: (§1) The hippocampal neurons were exposed with Aβ solutions (see below) after 17 days of culture. The Aβ1-42 preparation was done following the procedure described by Callizot et al. (2013) J. Neurosci. Res. 91706-716. Briefly, Aβ1-42 peptide was dissolved in the defined culture medium mentioned above, at an initial concentration of 40 μM. This solution was gently agitated for 3 days at 37° C. in the dark and immediately used after being properly diluted in culture medium to the concentrations used (20 μM (plate 1) or 2.5 μM (plate 2) corresponding to 2 μM or 0.25 μM of oligomers (AβO) respectively).
(§2) Donecopride fumarate was solved in culture medium and preincubated 1 h before Aβ application. Aβ1-42 preparation was added to a final concentration of 20 or 2.5 μM (=2 μM or 0.25 μM of AβO, evaluated by automatic Western Blot) diluted in control medium in presence of Donecopride.
(§3) 24 hours after intoxication, the hippocampal neurons were fixed by a cold solution of ethanol (95%) and acetic acid (5%) for 5 min at −20° C. After permeabilization with 0.1% of saponin, cells were incubated for 2 h with:
b) mouse monoclonal antibody anti-phospho Tau (AT100) at dilution of 1/400 in PBS containing 1% fetal calf serum and 0.1% of saponin.
(§4) For each condition, 30 pictures (representative of the whole well area) per well were taken using ImageXpress (Molecular Devices) at 20× magnification. All images were taken with the same acquisition parameters. Analyses were performed automatically by using Custom Module Editor (Molecular Devices).
(§5) The following endpoints were assessed: • Total number of neurons (neuron survival, number of MAP-2 positive neurons) • Neurite network (in μm of MAP-2 positive neurons) • area of tau in neurons (μm^2, overlapping with MAP-2 positive neurons).
(§6) Injury: The hippocampal neurons were exposed with Aβ solutions (see below) after 17 days of culture. The Aβ1-42 preparation was done following the procedure described by Callizot et al. (2013) J. Neurosci. Res. 91:706-716. The batch number of the Aβ1-42 used in this study contains 10% of oligomers (quantification by WB as performed in Combes et al. (2015) J. Neurosci. Res. 93:633-643). Briefly, Aβ1-42 peptide was dissolved in the defined culture medium mentioned above, at an initial concentration of 40 μmol/1. This solution was gently agitated for 3 days at 37° C. in the dark and immediately used after being properly diluted in culture medium to the concentrations used (20 μmol/l or 2.5 μmol/l corresponding to 2 μmol/l or 0.25 μmol/l of oligomers (AβO) respectively). Aβ1-42 preparation was added to a final concentration of 20 or 2.5 μmol/l (respectively 2 μmol/l or 0.25 μmol/l of AβO, determined by automatic WB) diluted in control medium in presence of the compounds.
Immunostaining: MAP-2/AT100—After fixation and permeabilization, cells were incubated for 2 hours with: • a chicken polyclonal antibody anti microtubule-associated-protein 2 (MAP-2) at dilution of 1/1000 in PBS containing 1% fetal calf serum and 0.1% saponin (this antibody stains specifically cell bodies and neurites, allowing study of neuronal cell death and neurite network); and • a mouse monoclonal antibody anti-phospho Tau (AT100) at dilution of 1/100 in PBS containing 1% fetal calf serum and 0.1% saponin.
For each condition, 30 pictures (representative of the whole well area) per well were taken using ImageXpress® (Molecular Devices) with 20× magnification. All images were generated using the same acquisition parameters. From images, analyses were directly and automatically performed by Custom Module Editor® (Molecular Devices). The following read-outs were investigated: • Total number of neurons (neuron survival, number of MAP-2 positive neurons) • Neurite network (in μm of MAP-2 positive neurons) • Area of AT100 (μm^2, overlapping with MAP-2 positive neurons).

[1] = system: rat primary hippocampal neurons injured with Aβ 1-42; assay: Survival and neurite network of MAP-2 neurons in primary hippocampal neurons injured with Aβ1-42; type: cell-based
Procedure: Rat hippocampal neurons were cultured as described by Callizot et al. (2013) J. Neurosci. Res. 91706-716. Pregnant female rats of 17 days gestation (Rats Wistar; Janvier Labs France) were killed using a deep anesthesia with CO2 chamber followed by a cervical dislocation. Then, fetuses were removed from the uterus and immediately placed in ice-cold L15 Leibovitz medium with a 2% penicillin (10,000 U/ml) and streptomycin (10 mg/ml) solution (PS) and 1% bovine serum albumin (BSA). Hippocampal neurons were treated for 20 min at 37° C. with a trypsin-EDTA solution at a final concentration of 0.05% trypsin and 0.02% EDTA. The dissociation was stopped by adding Dulbecco's modified Eagle's medium (DMEM) with 4.5 g/l of glucose, containing DNAse I grade II (final concentration 0.5 mg/ml) and 10% fetal calf serum (FCS). Cells were mechanically dissociated by three forced passages through the tip of a 10-ml pipette and then centrifuged at 515×g for 10 min at 4° C. The supernatant was discarded, and the pellet was resuspended in a defined culture medium consisting of Neurobasal medium with a 2% solution of B27 supplement, 2 mmol/l of L-glutamine, 2% of PS solution, and 10 ng/ml of brain-derived neurotrophic factor (BDNF). Viable cells were counted in a Neubauer cytometer, using the trypan blue exclusion test. Cells were seeded at a density of 20,000 per well in 96-well plates precoated with poly-L-lysine and cultured at 37° C. in an air (95%)-CO2 (5%) incubator. The medium was changed every 2 days.
as §1, §2
Donecopride fumarate (Donecopride) was tested on one culture in a 96 well plate (6 wells per conditions). The compound was preincubated one hour before Aβ application. The following conditions were assessed:
as §3
a) chicken polyclonal antibody anti microtubule-associated-protein 2 (MAP-2), diluted at 1/1000 in PBS containing 1% fetal calf serum and 0.1% of saponin (this antibody allows the specific staining of neuronal cell bodies and neurites; and allow the study of neuronal cell death and neurite network).
as §4, §5
All values are expressed as mean+/−SEM. Statistical analysis was performed by one-way ANOVA, followed by PLSD Fisher's test, p<0.05 were considered significant.
Rat hippocampal neurons were cultured as described by Callizot et al. (2013) J. Neurosci. Res. 91:706-716. […]

[2] = system: rat primary hippocampal neurons injured with Aβ 1-42; assay: Number of synapses (PSD95/SYN overlap) in primary hippocampal neurons injured with Aβ1-42; type: cell-based
Procedure: as §1, §2, §3
a) mouse monoclonal antibody anti post synaptic density 95 kDa (PSD95) at a dilution of 1/100 in PBS containing 1% fetal calf serum and 0.1% of saponin.
b) Rabbit polyclonal antibody anti-synaptophysin (SYN) at the dilution of 1/100 in PBS containing 1% fetal calf serum and 0.1% of saponin.
For each condition, 40 pictures per well were taken using ImageXpress (Molecular Devices) with 40× magnification. All images were taken with the same acquisition parameters.
Synapses evaluation was performed automatically by using Custom module editor (Molecular Devices).
The following endpoints were assessed: • Total number of synapses (overlapping between PSD95/SYN).
To assess the formation of synapses, the distribution of PSD-95, a post-synaptic marker, and synaptophysin, a pre-synaptic marker, was studied. A structure positive for both PD-95 and synaptophysin staining was considered as a synapse.
as §6
Immunostaining: PSD95 and SYN—After fixation and permeabilization, cells were incubated for 2 hours with: • mouse monoclonal antibody anti post synaptic density 95 kDa (PSD95) at dilution of 1/200 in PBS containing 1% fetal calf serum and 0.1% saponin; • rabbit polyclonal antibody anti-synaptophysin (SYN) at the dilution of 1/100 in PBS containing 1% fetal calf serum and 0.1% saponin.
For each condition, 40 pictures per well were taken using ImageXpress (Molecular Devices) with 40× magnification. All images were taken with the same conditions. Synapses evaluation were performed automatically by using Custom Module Editor® (Molecular Devices). The following endpoints were assessed: • Number of synapses (overlapping between PSD95/SYN)

[3] = Aβ1-42 injured hippocampal neurons, Example 4

SMILES	effect on Tau hyperphosphorylation (Tau (AT100))	neuroprotective effect (survival, neurite and synaptic network) [1, 3]	concentration with significant reduction of Tau hyperphosphorylation (Tau (AT100); Example 5 (FIG. 9D))	doses with neuroprotective effect on survival ([1]; Aβ1-42 injured hippocampal neurons (FIG. 5A))	neurite length normalized by number of neurons (neuritic growth) ([1]; Aβ1-42 injured hippocampal neurons (FIG. 5C))	effect on neurite network [1, 3]	concentration up to which active (survival and neurite network) ([1]; Aβ1-42 injured hippocampal neurons, Example 5 (FIG. 9A,B,C))	doses increasing the number of synapses ([2]; Aβ1-42 injured hippocampal neurons (FIG. 6))	concentration with neuroprotective effect on synapses ([2]; Aβ1-42 injured hippocampal neurons, Example 5 (FIG. 10))
COc1cc(N)c(Cl)cc1C(=O)CCC1CCN(CC2CCNCC2)CC1 [MR31176]	significant effect on Tau hyperphosphorylation was also observed at high concentration	neuroprotective effect at high concentrations							
COc1cc(N)c(Cl)cc1C(=O)CCC1CCN(CC2CCCCCC2)CC1 [MR31192]	important effect	very strong neuroprotective effect at very low doses	100 pM	1 to 5 nM	neurotrophic effect	very large effect was also observed on neurite network at every tested dose	≤ 500 µM	1 to 5 nM	500 pM
